# Results: US20220062165A1, “COMPOSITIONS AND METHODS FOR INTRANASAL DELIVERY OF PREGNENOLONE” (M et P Pharma AG, priority 2018, published 2022)
# Entries after “also recorded” stand apart in the source; their conditions may differ.
# How the values were obtained:
# Design in all cases: species or system rat
# [1] = system: extracellular acetylcholine levels in the amygdala; assay: In vivo microdialysis after intranasal administration in both nostrils, amygdala; details: 11.2 mg/mL, 5 μl each in both nostrils; n=4
# Protocol: (§1) Acetylcholine concentration values are presented as % of baseline with six baseline samples taken as 100 (mean+SE). Pregnenolone was administrated intranasally at a volume of 5 μl each in both nostrils, at the 0 minute time point. Time is presented in the x-axis and mean and standard error of acetylcholine concentration (expressed as % of baseline) are presented in the y-axis. Filled black circles represent the vehicle, unfilled white circles represent the 5.6 mg/mL pregnenolone dose and the triangle represents the 11.2 mg/mL pregnenolone dose.
# (§2) The semipermeable membrane allows molecules smaller than 6 KDa to pass through. The length of the active membrane is 2 mm for the frontal cortex and amygdala, and 4 mm for the hippocampus.
# (§3) Microdialysis. Prior the microdialysis process, the animals were anesthetized with Urethane intraperitoneal injection. (1.25 gram/kilogram, Sigma Aldrich). To allow fluid supply (perfusion liquid) (Ringer's solution 0.2 milliliter every 20 minutes) without physical contact with the animal, a catheter was placed into the intraperitoneal cavity. The animal was placed in an acrylic box (45×25×22 centimeter), and the body temperature was monitored and held stable at 36.5±0.5 degrees Celsius by atemperature controller (CMA/150) and a heating pad. […]
# [2] = system: extracellular acetylcholine levels in the hippocampus; assay: In vivo microdialysis after intranasal administration in both nostrils, hippocampus; details: 5 μl each in both nostrils
# Protocol: as §1, §2, §3
# [3] = system: extracellular acetylcholine levels in the frontal cortex; assay: In vivo microdialysis after intranasal administration in both nostrils, frontal cortex; details: 5 μl each in both nostrils
# Protocol: as §1, §2, §3
# [4] = system: extracellular acetylcholine levels in the amygdala; assay: In vivo microdialysis after lateralized intranasal administration (one nostril), amygdala; details: 5 μl of 11.2 mg/mL gel in one nostril, vehicle in the other; anesthetized rats; n=10
# Description: Subjects. A total number of 10 adult male Wistar rats 3-4 months of age and weighting between 400 and 500 grams, at the time of surgery, were obtained from the local animal facility (Tierversuchsanlage, University of Dusseldorf, Germany). They were grouped 4 per cage (Makrolon cage, type IV, 60.0×20.0×38.0 centimeter), and separated into individual cases after the surgery. They were housed under a reversed light-dark cycle (light off from 7 after midnight (AM) to 7 post meridiem (PM)), with free access to food and water. […] After two weeks of adaptation, animals underwent microdialysis as described below. All experiments were carried out in accordance with the European Communities Council Directive (86/609/EEC) on animal welfare, and approved by the German Animal Protection Law Authorities—LANUV Nordrhein-Westfalen.
# Surgery. Rats underwent implantation of microdialysis probes into specific brain areas. They were anesthetized with a mixture of ketamine hydrochloride (90.0 milligram/kilogram (mg/kg); Pharmacia & Upjohn) and xylazine hydrochloride (8.0 mg/kg; Bayer) and placed in a stereotaxic frame (David Kopf Instruments). […]
# Microdialysis. […] The animal was placed in an acrylic box (45×25×22 centimeter), and the body temperature was monitored and held stable at 36.5±0.5 degrees Celsius by atemperature controller (CMA/150) and a heating pad. […]
smiles,measurement,setting,value
CC(=O)[C@H]1CC[C@H]2[C@@H]3CC=C4C[C@@H](O)CC[C@]4(C)[C@H]3CC[C@]12C [pregnenolone],effect on acetylcholine (ACh) release in the amygdala,[1],induced an increase in acetylcholine release in the amygdala
same,effect on acetylcholine release in the hippocampus,"[2]; 5.6 mg/mL, n=7",had no effect
same,effect on acetylcholine release in the hippocampus,"[2]; 11.2 mg/mL, n=5","had an effect on acetylcholine release in the hippocampus, but this effect was not significant"
same,effect on acetylcholine release in the frontal cortex,"[3]; 5.6 mg/mL, n=5",Neither pregnenolone (PREG) at dosage 5.6 mg/mL or 11.2 mg/mL had an effect
same,effect on acetylcholine release in the frontal cortex,"[3]; 11.2 mg/mL, n=6",Neither pregnenolone (PREG) at dosage 5.6 mg/mL or 11.2 mg/mL had an effect
same,extracellular acetylcholine in the amygdala contralateral to the treated nostril,[4],not in the contralateral amygdala
same,extracellular acetylcholine in the amygdala ipsilateral to the treated nostril,[4],Higher increase in the ipsilateral amygdala of extracellular level of acetylcholine; also recorded: increases acetylcholine in the amygdala ipsilateral to this nostril
